Among the data in patent US20130157860A1, “METHOD OF CONTROLLING A WEED IN A GRAMINEOUS BIOMASS CROP” (SUMITOMO CHEMICAL COMPANY, LIMITED, priority 2011, published 2013) are herbicidal activity and phytotoxicity values, retold here.

Molecules are shown by their SMILES.

For series [1], the system named is Setaria faberi, Amaranthus retroflexus, Chenepodium album, and Stellaria media. The series is described as follows: Test Example 1: pre-emergence application, herbicidal activity. Type of series: in vivo. The settings on record: pre-emergence application to soil surface, 25 to 1000 g per 1 hectare, greenhouse, evaluated 21 days after treatment.
The test system of series [2] is switchgrass, miscanthus, giant reed, reed canarygrass, blue stem, erianthus, napier grass, and spartina. The series can be described thus: Test Example 1: pre-emergence application, phytotoxicity on biomass crops. As to the method:
Pre-emergence application in switchgrass, miscanthus, giant reed, reed canarygrass, blue stem, erianthus, napier grass and spartina
A field soil is filled into a 32 cm×22 cm plastic case having a depth of 8 cm, seeds of switchgrass, miscanthus, giant reed, reed canarygrass, blue stem, erianthus, napier grass, spartina, Setaria faberi, Amaranthus retroflexus, Chenepodium album, and Stellaria media are seeded thereon, and the seeds are covered with about 0.5 cm of a soil.

Series [3] deals with Echinochloa crus-galli, Digitaria adscendens, Chenopodium album and Abutilon theophrasti. The series can be described thus: Test Example 2: post-emergence application, herbicidal activity. Type of series: in vivo. The settings on record: post-emergence application after 2 weeks of cultivation, 25 to 1000 g per 1 hectare, greenhouse, evaluated 21 days after treatment.
Description: (§1) A field soil is filled into a 32 cm×22 cm plastic case having a depth of 8 cm, seeds of switchgrass, miscanthus, giant reed, reed canarygrass, blue stem, erianthus, napier grass, spartina, Echinochloa crus-galli, Digitaria adscendens, Chenopodium album and Abutilon theophrasti are seeded thereon, and the seeds are covered with about 0.5 cm of a soil, and cultivated in a greenhouse for 2 weeks.
The test system of series [4] is switchgrass, miscanthus, giant reed, reed canarygrass, blue stem, erianthus, napier grass, and spartina. The series is described as follows: Test Example 2: post-emergence application, phytotoxicity on biomass crops. Type of series: in vivo.
Description: as §1
[5] abbreviates: pre-emergence application to soil surface, 25 to 1000 g per 1 hectare, greenhouse, evaluated 21 days after treatment.
[6] abbreviates: post-emergence application after 2 weeks of cultivation, 25 to 1000 g per 1 hectare, greenhouse, evaluated 21 days after treatment.

For `C#CCN1C(=O)COc2cc(F)c(-n3c(=O)n(C)c(=S)n(C)c3=O)cc21` [compound represented by the formula (I)], the herbicidal activity entry in series [1] and in series [3] was “high herbicidal activity” in each case. Also, the phytotoxicity result in series [2] (in vivo) was “without causing significant phytotoxicity”; in series [4] (in vivo) it was “without causing a significant phytotoxicity”.
Turning to `CS(=O)(=O)NC(=O)c1cc(Oc2ccc(C(F)(F)F)cc2Cl)ccc1[N+](=O)[O-]` [fomesafen], the herbicidal activity entry in series [1] and in series [3] was “high herbicidal activity” each time. Moreover, in series [2] (setting [5]), the phytotoxicity entry is reported as “without causing significant phytotoxicity”.
With `CC(C)N(C)S(=O)(=O)NC(=O)c1cc(-n2c(=O)cc(C(F)(F)F)n(C)c2=O)c(F)cc1Cl` [saflufenacil], the herbicidal activity result in series [1] and in series [3] was “high herbicidal activity” throughout. Moreover, the phytotoxicity result in series [2] (setting [5]) is on record as “without causing significant phytotoxicity”; in series [4] (setting [6]) it was “without causing a significant phytotoxicity”.
`C#CCN1C(=O)COc2cc(F)c(N3C(=O)C4=C(CCCC4)C3=O)cc21` [flumioxazin]: the herbicidal activity entry in series [1] and in series [3] was “high herbicidal activity” each time. Further, the values for the phytotoxicity entry in series [2] (setting [5]) and in series [4] (setting [6]) were “without causing significant phytotoxicity” and “without causing a significant phytotoxicity”, respectively.
`Cc1nn(-c2cc(NS(C)(=O)=O)c(Cl)cc2Cl)c(=O)n1C(F)F` [sulfentrazone]: the herbicidal activity entry in series [1] and in series [3] was “high herbicidal activity” each time. Also, the phytotoxicity result was “without causing significant phytotoxicity” in series [2] (in vivo) and “without causing a significant phytotoxicity” in series [4] (in vivo).
As to `CCOc1cc(Oc2ccc(C(F)(F)F)cc2Cl)ccc1[N+](=O)[O-]` [oxyfluorfen], the herbicidal activity entry in series [1] and in series [3] was “high herbicidal activity” each time. Moreover, the phytotoxicity entry is given as “without causing significant phytotoxicity” in series [2] (setting [5]) and “without causing a significant phytotoxicity” in series [4] (setting [6]).
